According to patent US20220202052A1, “AROMATIC ALKAMIDES AND METHODS OF USE THEREOF IN TASTE MODULATION” (INTERNATIONAL FLAVORS & FRAGRANCES INC., priority 2019, published 2022):

Key:
Format in all cases: in vivo, human
[1] = Trained taste panel, individual alkamides and blend vs ethanol extract; conditions: 5% pea protein isolate with 200 μl ethanol, levels per sample in Table 12; for Liking Score: 1 is best, 10 is worst
Description: Additional compositions were prepared (Table 12) and assessed by a trained taste panel for taste modulating activity as compared to an ethanol extract of L. meyenii. The protein control sample was a 5% pea protein isolate solution with 200 μl of ethanol added thereto.

[2] = Sensory analysis of aromatic alkamide fractions by trained taste panel; conditions: 0.5 ppm in 4% pea protein isolate solution
Description: Sensory analysis of the aromatic alkamides was carried out. Specifically, each isolated fraction, corresponding to each of the aromatic alkamides in Table 7 (samples 14 to 21) (0.5 ppm), was added to a 4% pea protein isolate solution and the ability of the fraction to mask protein off-taste, bitterness, and/or astringency was assessed by a trained taste panel.

[3] = Modulation of umami perception, trained panel; conditions: 0.5 ppm in 0.4% Chicken Bouillon solution
Description: The ability of L. meyenii extracts and fractions thereof to modulate umami flavors was determined by adding 25 ppm of an ethanolic extract of L. meyenii root (Example 1), 2 ppm of an ethyl acetate layer of a crude ethanolic extract, or 0.5 ppm of a fraction enriched in N-benzyloctadecanamide to a 0.4% Chicken Bouillon solution (Knorr Chicken Bouillon). Sensory analyses of the above-referenced compositions were carried out by a trained panel, the results of which are presented in Table 10.

SMILES | Off Taste: Astringent (intensity) [1] | Off Taste: Beany (intensity) [1] | Off Taste: Bitter (intensity) [1] | Off Taste: Burnt (intensity) [1] | Off Taste: Chalky (intensity) [1] | Off Taste: Earthy (intensity) [1] | Off Taste: Fishy (intensity) [1] | Off Taste: Gritty (intensity) [1] | Off Taste: Metallic/Unpleasant (intensity) [1] | Off Taste: Nutty (intensity) [1] | Off Taste: Sour (intensity) [1] | Liking Score [1] | Sensory taste in 4% protein base [2] | Chicken Bouillon sensory (umami modulation) [3]
CCCCCCCC/C=C\CCCCCCCC(=O)NCc1ccccc1 [N-Benzyloleamide] | 4 | 5 | 2 | 0 | 6 | 2 | 0 | 4 | 2 | 2 | 2 | 2 | Little masking. | 
CCCCCCCCC/C=C/C=C/C(=O)CCCC(=O)NCc1ccccc1 [Macamide 2] | 2 | 5 | 3 | 0 | 2 | 2 | 0 | 2 | 1 | 2 | 3 | 2 | Good masking. | 
CC/C=C\C/C=C\C/C=C\CCCCCCCC(=O)NCc1ccccc1 [N-Benzyl linolenamide, N-Benzyllinolenamide] |  |  |  |  |  |  |  |  |  |  |  |  | Moderate masking. | 
CCCCCCCCCCCCCCCC(=O)NCc1ccccc1 [Macamide 1, N-benzylhexadecanamide] | 2 | 3 | 2 | 0 | 2 | 2 | 0 | 2 | 1 | 0 | 2 | 1 |  | 
CCCCC/C=C\C/C=C\CCCCCCCC(=O)NCc1ccccc1 [N-Benzyl linoleamide, N-Benzyllinoleamide] |  |  |  |  |  |  |  |  |  |  |  |  | Little masking. | 
CCCCCCCCCCCCCCCCCC(=O)NCc1ccccc1 [N-Benzyloctadecanamide, N-Benzyl octadecanamide] | 2 | 3 | 2 | 0 | 2 | 2 | 0 | 2 | 2 | 2 | 2 | 1 |  | Showed some enhancement
